Several values for one entry are separate records, joined by “and”; a condition that tells them apart may be missing. Equal values may be shown once.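 Method: 48-hour compound exposure of cells in 96-well plates, five concentrations, linear interpolation of endpoints. Abbreviation: GI50, concentration required for 50% inhibition of growth. TGI: concentration producing complete growth inhibition.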
What was measured:
Assay in all cases: NCI-60 cell line screen, 48 h
A498 renal = tested on: A498 renal
SK-MEL-2 melanoma = tested on: SK-MEL-2 melanoma
COLO 205 colon = tested on: COLO 205 colon
CCRF-CEM leukemia = tested on: CCRF-CEM leukemia
NCI-H460 lung = tested on: NCI-H460 lung
HOP-92 NSCLC = tested on: HOP-92 NSCLC
786-0 renal = tested on: 786-0 renal
U251 CNS = tested on: U251 CNS
SN12C renal = tested on: SN12C renal
SF-268 CNS = tested on: SF-268 CNS

Row | SMILES | GI50 (A498 renal) | TGI (A498 renal) | GI50 (SK-MEL-2 melanoma) | TGI (SK-MEL-2 melanoma) | GI50 (COLO 205 colon) | TGI (COLO 205 colon) | GI50 (CCRF-CEM leukemia) | TGI (CCRF-CEM leukemia) | GI50 (NCI-H460 lung) | TGI (NCI-H460 lung) | GI50 (HOP-92 NSCLC) | TGI (HOP-92 NSCLC) | GI50 (786-0 renal) | TGI (786-0 renal) | GI50 (U251 CNS) | TGI (U251 CNS) | GI50 (SN12C renal) | TGI (SN12C renal) | GI50 (SF-268 CNS) | TGI (SF-268 CNS)
1 | Nc1nc(N)c2cc(Sc3ccc(Cl)cc3)ccc2n1 | 3.19 µM | 19 µM | 2.23 µM | 5.53 µM | 1.28 µM | 2.83 µM | 0.815 µM | 17.4 µM | 0.314 µM | 11.9 µM | 1.51 µM | 7 µM | 0.582 µM | 2.04 µM | 0.526 µM | 1.99 µM | 2.91 µM | 17.9 µM | 0.898 µM | 18 µM
2 | CCN1C2=C(SC(=S)C1=C1SC(C(=O)c3ccccc3)=C(C(=O)c3ccccc3)S1)SC(=Nc1ccccc1)C2=O | 28.1 µM | > 100 µM | 7.74 µM | > 47.3 µM | > 100 µM | > 100 µM | 0.633 µM | > 100 µM | 27.8 µM | > 100 µM | 22.5 µM | > 100 µM | 1.53 µM | > 68 µM | 3.39 µM | > 60.5 µM | 46 µM | > 100 µM | 8.24 µM | > 100 µM
3 | CC(=O)OC1C(COC(N)=O)OC(n2c(-c3ccc(C)cc3)cc(-c3ccccc3)c(C#N)c2=O)C(OC(C)=O)C1OC(C)=O (stereo not given) |  | > 100 µM |  | > 100 µM |  | > 100 µM |  | > 100 µM |  | > 100 µM |  | > 100 µM |  | > 100 µM |  | > 100 µM |  | > 100 µM |  | > 100 µM
4 | CN(CC(=O)O)S(=O)(=O)c1ccc(Cl)cc1 |  | > 100 µM |  | > 100 µM |  | > 100 µM |  | > 100 µM |  | > 100 µM |  | > 100 µM |  | > 100 µM |  | > 100 µM |  | > 100 µM |  | > 100 µM
5 | COC(=O)C(=O)C(C(=O)C(=O)Nc1ccccc1C(N)=O)c1nc2ccc([N+](=O)[O-])cc2[nH]c1=O (stereo not given) |  | > 100 µM |  | > 100 µM |  | > 100 µM |  | > 100 µM |  | > 100 µM |  | > 100 µM |  | > 100 µM |  | > 100 µM |  | > 100 µM |  | > 100 µM
6 | COc1ncnn2ccc(-c3cnc4nc(C)n(Cc5nnc(C(C)F)o5)c4c3)c12 (stereo not given) | 0.163 µM | 0.62 µM | 0.0748 µM | 0.236 µM | 0.11 µM | 0.468 µM | 0.11 µM | > 74.6 µM | 0.242 µM | > 100 µM | 0.204 µM | 2 µM | 0.273 µM | > 100 µM | 0.249 µM | > 100 µM | 0.255 µM | > 58.1 µM | 0.526 µM | > 80.5 µM
7 | COc1cc2cc(Oc3ccc(NC(=O)Nc4ccc(F)c(C(F)(F)F)c4)cc3)c(C)nc2cc1OCCN1CCOCC1 | 2.8 µM | 10.2 µM | 2.38 µM | 7.58 µM | 1.87 µM | 4.28 µM | 1.72 µM | 11.5 µM | 1.96 µM | 5.34 µM | 1.31 µM | 4.96 µM | 1.73 µM | 3.44 µM | 2.83 µM | 11.1 µM | 2.65 µM | 15.5 µM | 3.66 µM | 19.8 µM
8 | CCOC(=O)Cc1csc(Nc2nc(O)c(C3=c4ccccc4=NC3=O)s2)n1 | 31.6 µM | 77.7 µM | 25.7 µM | > 100 µM | 47.1 µM | > 100 µM | 21.1 µM | 50.8 µM | 21.6 µM | 65.2 µM | 22.2 µM | 52.3 µM | 21.7 µM | 43.2 µM | 19.2 µM | 39.6 µM | 28 µM | 98.2 µM | 34.6 µM | > 100 µM
9 | Cc1ccc(C)c(N2C(=O)C(=O)C(c3nc4ccccc4s3)C(=O)C2=O)c1 |  | > 100 µM |  | > 100 µM |  | > 100 µM |  | > 100 µM |  | > 100 µM |  | > 100 µM |  | > 100 µM |  | > 100 µM |  | > 100 µM |  | > 100 µM
10 | Nc1n[nH]c2ccc([C@H]3[C@@H]4C5CCC(C5)[C@@H]4c4c(ccc5[nH]ncc45)N3S(=O)(=O)C3CC3)cc12 (stereo not given in full) | 0.108 µM | 0.384 µM | 0.343 µM | 14.5 µM | 0.193 µM | 6.31 µM | 0.168 µM | > 21.3 µM | 0.181 µM | 8.38 µM | 0.422 µM | 11.1 µM | 0.366 µM | 22.3 µM | 0.208 µM | 17.5 µM | 0.272 µM | > 50 µM | 0.618 µM | 14 µM
11 | CCOC(=O)Nc1nc(-c2ccccc2)c(C)s1 |  | > 100 µM |  | > 100 µM |  | > 100 µM |  | > 100 µM |  | > 100 µM |  | 90.5 µM |  | > 100 µM |  | > 100 µM |  | > 100 µM |  | > 100 µM
12 | Nc1ncnc2occ(-c3ccc(NC(=O)Nc4cc(C(F)(F)F)ccc4F)cc3)c12 | 1.09 µM and 0.506 µM | 6.14 µM and 2.69 µM | 6.25 µM and 3.36 µM | 12.3 µM and 8.36 µM | 5.27 µM and 3.74 µM | 9.88 µM and 7.13 µM | 7.55 µM and 1.58 µM | 22.8 µM and > 25 µM | 4.86 µM and 2.96 µM | 11.2 µM and 6.94 µM | 3.98 µM and 3.4 µM | 12.1 µM and 11.5 µM | 6.63 µM and 4.43 µM | 16.4 µM and 10.3 µM | 7.26 µM and 4.26 µM | 22.8 µM and 11.2 µM | 4 µM and 1.47 µM | 21.2 µM and 11.6 µM | 4.68 µM and 2.34 µM | 12.5 µM and 8.02 µM
13 | O=C1C2=C(c3ccccc31)C(c1ccccc1Cl)NC(=S)N2 (stereo not given) |  | > 100 µM |  | > 100 µM |  | > 100 µM |  | > 100 µM |  | > 100 µM |  | 68.4 µM |  | > 100 µM |  | > 100 µM |  | > 100 µM |  | > 100 µM
14 | N#CCC(=O)N/N=C(/C(=O)Nc1ccccc1)C1C(=O)N(c2ccccc2)N=C1N (stereo not given) |  | > 100 µM |  | > 100 µM |  | > 100 µM |  | > 100 µM |  | > 100 µM |  | > 100 µM |  | > 100 µM |  | > 100 µM |  | > 100 µM |  | > 100 µM
15 | NNC(=S)N/N=C/c1ccccn1 | 1.82 µM | 9.01 µM | 2.86 µM | > 100 µM | 2.39 µM | > 100 µM | 2.05 µM | > 100 µM | 1.23 µM | 8.54 µM | 0.887 µM | 8.2 µM | 1.76 µM | > 100 µM | 1.99 µM | > 100 µM | 2.61 µM | > 100 µM | 1.58 µM | > 100 µM

Source: PubChem BioAssay (NCI)
